Data: patent US12084419B2, “Cell metabolism modulating compounds and uses thereof” (CRESCENTA BIOSCIENCES, priority 2020, dated 2024)

Target: T1, His6 tagged human recombinant FABP4 (Homo sapiens, UniProt P15090)
T1 construct: purchased Cayman Chemicals 10009549
Assay: FABP4 TR-FRET assay: displacement of BODIPY FL C12 fatty acid
Details: triplicates, inhibition of BODIPY FL C12 binding
Excerpt: Activity of compounds with FABP4 was profiled using a Terbium (Tb) based time resolved fluorescence energy transfer (TR-FRET) assay. The assay measures the compound mediated displacement of the fluorescent fatty acid BODIPY FL C12 (Thermo Fisher; catalog number D3822) from His6 tagged human recombinant FABP4 (His6-FABP4; Cayman Chemicals, catalog number 10009549) via recording the energy transfer from TB donor molecule on anti-His6-tag antibody to acceptor BODIPY moiety. Briefly, compounds were prepared at a concentration of 0.362 mM and 0.0362 mM, and BODIPY FL C12 was prepared at 4.2 μM, in DMSO. 1.2 μL of each compound or DMSO (vehicle control) and 1.2 μL of BODIPY FL C12 were added into the wells of a 384-well black polypropylene plate. His6-FABP4 and Tb anti-His6 antibody were prepared in the assay buffer (25 mM Tris/HCl, pH 7.4, 0.4 mg/ml y-globulins, 0.010% NP-40, 1 mM DTT) at a concentration of 83 nM and 49.6 nM, respectively. The protein and antibody solutions were then mixed at a ratio of 34:7 (v/v) and incubated on ice for 30 minutes. The assay was initiated by adding 41 μL of the resulting protein/antibody solution into the wells containing the compounds and BODIPY FL C12. The plate was centrifuged and incubated at room temperature for 10 min. The TR-FRET signals were recorded using an EnVision Multilabel plate reader (PerkinElmer; TB excitation 320 nm, BODIPY FL C12 emission 520 nm; TB emission 615 nm). Relative fluorescence ratio (520 nm*10,000/615 nm) were used to calculate the compound mediated inhibition of BODIPY C12 FL fatty acid binding to FABP4. […] Glucose consumption and FABP4 inhibition is shown below in Table 3 below.

T1 sequence (P15090 whole entry): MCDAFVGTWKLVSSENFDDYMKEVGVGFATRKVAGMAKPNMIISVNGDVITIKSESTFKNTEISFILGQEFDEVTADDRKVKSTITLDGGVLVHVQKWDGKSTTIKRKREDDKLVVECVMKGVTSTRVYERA

Structure (SMILES) | inhibition at 1 µM (1 μM compound) | inhibition at 10 µM (10 μM compound) | FABP4 inhibition (%) at 1 μM Mean (1 μM compound) | FABP4 inhibition (%) at 10 μM Mean (10 μM compound)
NC(=O)c1cccc(Cn2c3c(c4cccc(C(=O)O)c42)CCCC(CCc2ccccc2)C3)c1 (centres unmarked) [5-[(3-carbamoylphenyl)methyl]-7-(2-phenylethyl)-5H,6H,7H,8H,9H,10H-cyclohepta[b]indole-4-carboxylic acid] | 99.1% | 98% |  | 
CCC1CCCc2c(n(Cc3cccc(C(N)=O)c3)c3c(C(=O)O)cccc23)C1 (centres unmarked) [5-[(3-carbamoylphenyl)methyl]-7-ethyl-5H,6H,7H,8H,9H,10H-cyclohepta[b]indole-4-carboxylic acid] | 91.8% | 100% |  | 
CCCCCCC1CCCc2c(n(Cc3cccc(C(N)=O)c3)c3c(C(=O)O)cccc23)C1 (centres unmarked) [5-[(3-carbamoylphenyl)methyl]-7-hexyl-5H,6H,7H,8H,9H,10H-cyclohepta[b]indole-4-carboxylic acid] | 102% | 94.2% |  | 
CCCCCCCCC1CCCc2c(n(Cc3cccc(C(N)=O)c3)c3c(C(=O)O)cccc23)C1 (centres unmarked) [5-[(3-carbamoylphenyl)methyl]-7-octyl-5H,6H,7H,8H,9H,10H-cyclohepta[b]indole-4-carboxylic acid] | 98.1% | 93.6% |  | 
CCCCCC1CCCc2c(n(Cc3cccc(C(N)=O)c3)c3c(C(=O)O)cccc23)C1 (centres unmarked) [5-[(3-carbamoylphenyl)methyl]-7-pentyl-5H,6H,7H,8H,9H,10H-cyclohepta[b]indole-4-carboxylic acid] | 91.2% | 93.3% |  | 
CCCC1CCCc2c(n(Cc3cccc(C(N)=O)c3)c3c(C(=O)O)cccc23)C1 (centres unmarked) [5-[(3-carbamoylphenyl)methyl]-7-propyl-5H,6H,7H,8H,9H,10H-cyclohepta[b]indole-4-carboxylic acid] | 85.1% | 91.4% |  | 
CCC1CCCCc2c1c1cccc(C(=O)O)c1n2Cc1cccc(C(N)=O)c1 (centres unmarked) [5-[(3-carbamoylphenyl)methyl]-10-ethyl-5H,6H,7H,8H,9H,10H-cyclohepta[b]indole-4-carboxylic acid] | 86.4% | 98% |  | 
CCCCCC1CCCCc2c1c1cccc(C(=O)O)c1n2Cc1cccc(C(N)=O)c1 (centres unmarked) [5-[(3-carbamoylphenyl)methyl]-10-pentyl-5H,6H,7H,8H,9H,10H-cyclohepta[b]indole-4-carboxylic acid] | 81.1% | 96.1% |  | 
CCCC1CCCCc2c1c1cccc(C(=O)O)c1n2Cc1cccc(C(N)=O)c1 (centres unmarked) [5-[(3-carbamoylphenyl)methyl]-10-propyl-5H,6H,7H,8H,9H,10H-cyclohepta[b]indole-4-carboxylic acid] | 38.8% | 91.6% |  | 
CCCCCCC1CCCc2c(n(Cc3cccc(C(=O)O)c3)c3c(C(=O)O)cccc23)C1 (centres unmarked) [5-[(3-carboxyphenyl)methyl]-7-hexyl-5H,6H,7H,8H,9H,10H-cyclohepta[b]indole-4-carboxylic acid] | 89.8% | 89.2% |  | 
CCCCCCC1CCCc2c(n(Cc3cccc(Cl)c3)c3c(C(=O)O)cccc23)C1 (centres unmarked) [5-[(3-chlorophenyl)methyl]-7-hexyl-5H,6H,7H,8H,9H,10H-cyclohepta[b]indole-4-carboxylic acid] | 103% | 45.9% |  | 
CCCCCCC1CCCc2c(n(Cc3cccc(C#N)c3F)c3c(C(=O)O)cccc23)C1 (centres unmarked) [5-[(3-cyano-2-fluorophenyl)methyl]-7-hexyl-5H,6H,7H,8H,9H,10H-cyclohepta[b]indole-4-carboxylic acid] | 87.9% | 95.5% |  | 
CCCCCCC1CCCc2c(n(Cc3cccc(C#N)c3)c3c(C(=O)O)cc(F)cc23)C1 (centres unmarked) [5-[(3-cyanophenyl)methyl]-2-fluoro-7-hexyl-5H,6H,7H,8H,9H,10H-cyclohepta[b]indole-4-carboxylic acid] | 87.3% | 93.9% |  | 
N#Cc1cccc(Cn2c3c(c4cccc(C(=O)O)c42)CCCC(CCc2ccccc2)C3)c1 (centres unmarked) [5-[(3-cyanophenyl)methyl]-7-(2-phenylethyl)-5H,6H,7H,8H,9H,10H-cyclohepta[b]indole-4-carboxylic acid] | 93.1% | 94.5% |  | 
CCC1CCCc2c(n(Cc3cccc(C#N)c3)c3c(C(=O)O)cccc23)C1 (centres unmarked) [5-[(3-cyanophenyl)methyl]-7-ethyl-5H,6H,7H,8H,9H,10H-cyclohepta[b]indole-4-carboxylic acid] | 90% | 97% |  | 
CCCCCCC1CCCc2c(n(Cc3cccc(C#N)c3)c3c(C(=O)O)cccc23)C1 (centres unmarked) [5-[(3-cyanophenyl)methyl]-7-hexyl-5H,6H,7H,8H,9H,10H-cyclohepta[b]indole-4-carboxylic acid] | 94.1% | 88.7% |  | 
CCCCCCCCC1CCCc2c(n(Cc3cccc(C#N)c3)c3c(C(=O)O)cccc23)C1 (centres unmarked) [5-[(3-cyanophenyl)methyl]-7-octyl-5H,6H,7H,8H,9H,10H-cyclohepta[b]indole-4-carboxylic acid] | 94.5% | 93% |  | 
CCCCCC1CCCc2c(n(Cc3cccc(C#N)c3)c3c(C(=O)O)cccc23)C1 (centres unmarked) [5-[(3-cyanophenyl)methyl]-7-pentyl-5H,6H,7H,8H,9H,10H-cyclohepta[b]indole-4-carboxylic acid] | 100% | 96.1% |  | 
CCC1CCCCc2c1c1cccc(C(=O)O)c1n2Cc1cccc(C#N)c1 (centres unmarked) [5-[(3-cyanophenyl)methyl]-10-ethyl-5H,6H,7H,8H,9H,10H-cyclohepta[b]indole-4-carboxylic acid] | 92.4% | 98.2% |  | 
CCCCCC1CCCCc2c1c1cccc(C(=O)O)c1n2Cc1cccc(C#N)c1 (centres unmarked) [5-[(3-cyanophenyl)methyl]-10-pentyl-5H,6H,7H,8H,9H,10H-cyclohepta[b]indole-4-carboxylic acid] | 44.3% | 77% |  | 
CCCC1CCCCc2c1c1cccc(C(=O)O)c1n2Cc1cccc(C#N)c1 (centres unmarked) [5-[(3-cyanophenyl)methyl]-10-propyl-5H,6H,7H,8H,9H,10H-cyclohepta[b]indole-4-carboxylic acid] | 73.3% | 97.5% |  | 
CCCCCCC1CCCc2c(n(Cc3cccc(F)c3)c3c(C(=O)O)cccc23)C1 (centres unmarked) [5-[(3-fluorophenyl)methyl]-7-hexyl-5H,6H,7H,8H,9H,10H-cyclohepta[b]indole-4-carboxylic acid] | 93.6% | 92.9% |  | 
CCCCCCC1CCCc2c(n(Cc3ccc(C(N)=O)cc3)c3c(C(=O)O)cccc23)C1 (centres unmarked) [5-[(4-carbamoylphenyl)methyl]-7-hexyl-5H,6H,7H,8H,9H,10H-cyclohepta[b]indole-4-carboxylic acid] | 77.7% | 83.8% |  | 
CCCCCCC1CCCc2c(n(Cc3ccc(C#N)cc3)c3c(C(=O)O)cccc23)C1 (centres unmarked) [5-[(4-cyanophenyl)methyl]-7-hexyl-5H,6H,7H,8H,9H,10H-cyclohepta[b]indole-4-carboxylic acid] | 81.3% | 84.7% |  | 
CCCCCCC1CCCc2c(n(Cc3ccc(F)cc3)c3c(C(=O)O)cccc23)C1 (centres unmarked) [5-[(4-fluorophenyl)methyl]-7-hexyl-5H,6H,7H,8H,9H,10H-cyclohepta[b]indole-4-carboxylic acid] | 74.4% | 77.6% |  | 
CCCCCCC1CCCc2c(n(Cc3ccc(C#N)o3)c3c(C(=O)O)cccc23)C1 (centres unmarked) [5-[(5-cyanofuran-2-yl)methyl]-7-hexyl-5H,6H,7H,8H,9H,10H-cyclohepta[b]indole-4-carboxylic acid] | 81.3% | 90% |  | 
CCCCCCC1CCCc2c(n(Cc3cncc(C#N)c3)c3c(C(=O)O)cccc23)C1 (centres unmarked) [5-[(5-cyanopyridin-3-yl)methyl]-7-hexyl-5H,6H,7H,8H,9H,10H-cyclohepta[b]indole-4-carboxylic acid] | 90.5% | 91.8% |  | 
CCCCCCC1CCCc2c(n(Cc3ccc(C#N)s3)c3c(C(=O)O)cccc23)C1 (centres unmarked) [5-[(5-cyanothiophen-2-yl)methyl]-7-hexyl-5H,6H,7H,8H,9H,10H-cyclohepta[b]indole-4-carboxylic acid] | 86.6% | 87.3% | 83.31% | 89.42%
CCCCCCC1CCCc2c(n(Cc3cccc(C(N)=O)n3)c3c(C(=O)O)cccc23)C1 (centres unmarked) [5-[(6-carbamoylpyridin-2-yl)methyl]-7-hexyl-5H,6H,7H,8H,9H,10H-cyclohepta[b]indole-4-carboxylic acid] | 94% | 95.2% |  | 
CCCCCCC1CCCc2c(n(Cc3cccc(C#N)n3)c3c(C(=O)O)cccc23)C1 (centres unmarked) [5-[(6-cyanopyridin-2-yl)methyl]-7-hexyl-5H,6H,7H,8H,9H,10H-cyclohepta[b]indole-4-carboxylic acid] | 93.5% | 88.1% |  | 
